Assay results: patent publication US12370236B2, “Method and combination for the suppression of COVID-19 virus” (priority 2021, dated 2025)

Legend:
[1] = biological target: T1, 3CL^pro (Severe acute respiratory syndrome coronavirus 2, UniProt P0DTD1); assay: FRET-based 3CL^pro enzyme activity assay; format: biochemical, SARS-CoV2
T1 construct: A 3CL^pro (Cat. #78042-1) assay kit (BPS Bioscience, CA, USA) was used; purchased BPS Bioscience 78042-1
Procedure: FIG. 1 is a scheme of the fluorogenic 3CL^pro protease enzymatic assay. The fluorescence of Edans in the C-terminal of the peptide substrate (Dabcyl-[…]-Edans, the cleavage site is in between the amino acids Q and S) is quenched by the Dabcyl in the N-terminus without the 3CL^pro enzymatic cleavage. After the protease is added and cleaves the peptide substrate, the quencher molecule Dabcyl can no longer quench the fluorophore Edans which results in an increase in fluorescence emission at 460 nm. The intensity of this fluorescence is proportional to the protease activity. FRET: fluorescence resonance energy transfer.
3CL^pro inhibition percentage of different test groups is determined by “(Isubstrate+3CLpro−Itest_group)/(Isubstrate+3CLpro−Isubstrate)×100%, where “I” is the observed intensity of blue fluorescence light (at 460 nm); Isubstrate and Isubstrate+3CLpro are supposed to give the lowest and the highest intensity, respectively, where the substrate is a peptide labeled by a quencher and fluorophore at its N- and C-termini (as shown in FIG. 1). Specifically, the fluorescence of Edans in the C-terminal of the peptide (Dabcyl-[…]-Edans; the cleavage site is in between the amino acids Q and S) is quenched by the Dabcyl in the N-terminus in the absence of the 3CL^pro enzymatic cleavage. Norvancomycin (Nv) is the interface blocker here while the FDA drugs boceprevir (Bc) and GC376 (in its clinical trials) are the active-site inhibitors. The results are shown by the average value of two replicates.
The FRET-based assay was designed for 3CL^pro activity assay and explained in FIG. 1. The 3CL^pro enzyme assay was developed in a 96-well black microplate with a total volume of 50 μL. 30 μL of 0.5 ng/μL enzyme in a reaction buffer was added into each well, followed by the addition of 10 μL substrate solution to a final concentration of 40 μM. Enzymatic reaction gave fluorescence whose intensity was measured after incubation for 4 hours at 37° C. with slow shaking in a microtiter plate reading fluorimeter (BioTek Synergy HTX multi-mode reader, VT, US) with Ex=340 nm/Em=460 nm. […]

[2] = system: SARS-CoV2 hCoV-19/Taiwan/NTU13/2020; assay: Plaque reduction assay in Vero E6 cells; format: cell-based
[3] = system: Vero E6 cells; assay: Cytotoxicity assay; format: cell-based
Procedure: (§1) FIGS. 6A and 6B show the cytotoxicity of norvancomycin (NV) and nelfinavir (NF). The percentage of cell survival is determined by obtaining cell viability of Vero E6 cells in the presence of drugs of interest and trace amount of DMSO that help fully dissolve the drug, normalized by Vero E6 cells in the presence of the same concentration of said DMSO, which serves as a control, the cell viability in the absence of the drugs. 50% cytotoxic concentration (CC50) represents the concentration of NV and NF required to reduce cell survival by 50%.
(§2) Cytotoxicity assay was performed using Vero E6 cells described above to determine the cytotoxicity of tested compounds, i.e., norvancomycin and nelfinavir. DMSO, the solvent used to help fully dissolve the drugs of interest, was used as the negative control. The percentage of cell survival and 50% cytotoxic concentration (CC50) were derived.

[4] = Cytotoxicity assay; format: cell-based; details: African green monkey, Vero E6 cells
Procedure: as §1, §2

SMILES	extra 3CL^pro inhibition vs GC376 alone ([1]; 25 μM norvancomycin in combination with 16 nM GC376) [%]	additional 3CL^pro inhibition ([1]; 50 μM norvancomycin in combination with 25 μM boceprevir) [%]	elevation of 3CL^pro inhibition ([1]; co-used with 25 μM boceprevir at molar ratio 1:1)	suppression of SARS-CoV2 replication ([2]; 40 μM norvancomycin) [%]	CC50 [3] [µM]	suppression of SARS-CoV2 replication ([2]; 0.9 μM nelfinavir) [%]	suppression of SARS-CoV2 replication ([2]; 1.8 μM nelfinavir) [%]	suppression of SARS-CoV2 replication ([2]; 1.8 μM nelfinavir together with 37.5 μM norvancomycin) [%]	suppression of SARS-CoV2 replication ([2]; 3.6 μM nelfinavir) [%]	suppression of SARS-CoV2 replication ([2]; 3.6 μM nelfinavir and 37.5 μM norvancomycin) [%]	CC50 [4] [µM]	cell survival rate ([3]; 1.8 μM nelfinavir) [%]	cell survival rate ([3]; 3.6 μM nelfinavir) [%]
CC(C)C[C@@H](N)C(=O)N[C@H]1C(=O)N[C@@H](CC(N)=O)C(=O)N[C@H]2C(=O)N[C@H]3C(=O)N[C@H](C(=O)N[C@H](C(=O)O)c4cc(O)cc(O)c4-c4cc3ccc4O)[C@H](O)c3ccc(c(Cl)c3)Oc3cc2cc(c3O[C@@H]2O[C@H](CO)[C@@H](O)[C@H](O)[C@H]2O[C@H]2C[C@](C)(N)[C@H](O)[C@H](C)O2)Oc2ccc(cc2Cl)[C@H]1O [Norvancomycin]	10	17	around 10%	4	> 100	–	–	–	–	–	–	–	–
Cc1c(O)cccc1C(=O)N[C@@H](CSc1ccccc1)[C@H](O)CN1C[C@H]2CCCC[C@H]2C[C@H]1C(=O)NC(C)(C)C [nelfinavir]	–	–	–	–	–	41	35	100	100	100	8.26 ± 0.495	84	69
